Data taken from publication PMC4097363, “Trace amines inhibit insect odorant receptor function through antagonism of the co-receptor subunit” (F1000Research, 2014).
Read-outs that look alike come from different tables or passages of the source.

What was measured:
Cqui\Orco = Cqui\Orco (Culex quinquefasciatus, UniProt Q309I4); experiment: Antagonism of OLC12 activation of Orco in Xenopus oocytes; assay type: cell-based; conditions: for inhibition at 100 µM: Cqui\Orco activated by 30µM OLC12 (~EC5), 100µM of each amine, mean ± SEM, n = 3-10, read-out: inhibition of the OLC12 response; for IC50: read-out: IC 50 for inhibition of Cqui\Orco activation
Sequence of Cqui\Orco (Q309I4 entry or part of it): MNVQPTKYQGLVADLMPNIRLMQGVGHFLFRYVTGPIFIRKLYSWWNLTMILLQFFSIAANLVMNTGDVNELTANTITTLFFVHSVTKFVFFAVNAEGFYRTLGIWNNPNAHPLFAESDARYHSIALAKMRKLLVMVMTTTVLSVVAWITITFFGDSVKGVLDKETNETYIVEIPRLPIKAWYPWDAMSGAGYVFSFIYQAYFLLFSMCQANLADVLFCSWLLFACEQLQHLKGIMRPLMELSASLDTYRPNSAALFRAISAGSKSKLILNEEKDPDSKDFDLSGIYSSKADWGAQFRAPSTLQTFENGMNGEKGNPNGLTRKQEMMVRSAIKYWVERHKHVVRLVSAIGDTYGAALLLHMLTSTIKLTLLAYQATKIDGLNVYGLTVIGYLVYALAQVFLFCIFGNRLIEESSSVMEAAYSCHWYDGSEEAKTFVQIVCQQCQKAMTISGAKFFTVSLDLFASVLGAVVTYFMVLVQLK
Method: (§1) Follicle cells were removed by treatment with collagenase B (Boehringer Mannheim) for 2 hours at room temperature. Capped cRNA encoding each OR subunit was generated using mMessage mMachine kits (Ambion). For heteromeric ORs, 25 ng of cRNA encoding each OR subunit was injected into Stage V-VI Xenopus oocytes. For expression of Orco homomers, 50 ng of cRNA was injected. Oocytes were incubated at 18°C in Barth's saline (in mM: 88 NaCl, 1 KCl, 2.4 NaHCO 3, 0.3 CaNO 3, 0.41 CaCl 2, 0.82 MgSO 4, 15 HEPES, pH 7.6, and 150µg/ml ceftazidime) for 2–5 days prior to electrophysiological recording.
(§2) Odorant and Orco ligand induced currents were recorded under two-electrode voltage clamp, using an automated parallel electrophysiology system (OpusExpress 6000A, Molecular Devices). Oocytes were perfused with ND96 (in mM: 96 NaCl, 2 KCl, 1 CaCl 2, 1 MgCl 2, 5 HEPES, pH 7.5). Orco ligands were prepared as 50 or 100 mM stock solutions in DMSO and then diluted into ND96 on the day of the experiment. Odorants were prepared as 100 mM stock solutions in DMSO and then diluted into ND96. Unless otherwise noted, applications were for 60 sec at a flow rate of 1.0 ml/min, with extensive washing in ND96 at 4.6 ml/min between applications. Micropipettes were filled with 3 M KCl and had resistances of 0.2–2.0 MΩ. The holding potential was -70 mV. Current responses, filtered (4-pole, Bessel, low pass) at 20 Hz (-3 db) and sampled at 100 Hz, were captured and stored using OpusXpress 1.1 software (Molecular Devices).
To screen for agonist activity, oocytes were exposed to 30 sec applications of candidate compounds with 5 min washes between applications ( Figure 2A). For the concentration-response protocol ( Table 1), applications were for 20 sec at a flow rate of 1.65 ml/min. To measure antagonist activity at Orco ( Figure 2B, 2C, Figure 3, Figure 4A and Figure 5A), oocytes were exposed to two 60 sec applications of the synthetic Orco agonist OLC12 (2-((4-Ethyl-5-(4-pyridinyl)-4H-1,2,4-triazol-3-yl)sulfanyl)-N-(4-isopropylphenyl)acetamide) with 4 min washes between applications. Oocytes were then exposed to a 90 sec application of antagonist candidate, immediately followed by a 60 sec co-application of antagonist candidate and OLC12. The current response in the presence of antagonist candidate was compared to the mean of the preceding two responses to OLC12 alone and is presented as a percentage.
Initial analysis of electrophysiological data was done using Clampfit 9.1 software (Molecular Devices). Curve fitting and statistical analyses were done using Prism 5 (Graphpad). Concentration-inhibition data were fit to the equation: I = I max/(1+ (X/IC 50) ^n) where I represents the current response at a given concentration of inhibitor, X; I max is the maximal response in the absence of inhibitor; IC 50 is the concentration of inhibitor present that still allows a half maximal response from odorant; n is the apparent Hill coefficient. Concentration-response data were fit to the equation: I = I max/(1+(EC 50/X) ^n) where I represents the current response at a given concentration of odorant, X; I max is the maximal response; EC 50 is the concentration of agonist yielding a half maximal response; n is the apparent Hill coefficient. Statistical significance (p<0.05) was assessed using a two-tailed unpaired t test, an F test, or a one-way analysis of variance followed by the Dunnett's post-test, as appropriate.

Onub\Orco+Onub\Or6 = experiment: Inhibition of odorant activation of heteromeric OR in Xenopus oocytes; assay type: cell-based, Ostrinia nubilalis; conditions: activated by 1µM Z11-14:OAc; 10µM tryptamine or 100µM tyramine
Method: as §1
as §2, with “Current responses, filtered (4-pole, Bessel, low pass) at 20 Hz (-3 db) and sampled at 100 Hz, were captured and stored using OpusXpress 1.1 software (Molecular Devices).” left out

Mcar\Orco+Mcar\Or5 = experiment: as above; assay type: cell-based, Megacyllene caryae; conditions: activated by 150µM 2-phenylethanol; 10µM tryptamine or 100µM tyramine
Method: as §1
as §2, with “Current responses, filtered (4-pole, Bessel, low pass) at 20 Hz (-3 db) and sampled at 100 Hz, were captured and stored using OpusXpress 1.1 software (Molecular Devices).” left out

Agam\Orco+Agam\Or48 = biological target: T1, Agam\Orco+Agam\Or48 (Anopheles gambiae, UniProt Q7QCC7); experiment: as above; assay type: cell-based; conditions: activated by 3µM 2-nonanone; 10µM tryptamine or 100µM tyramine
T1 sequence (Q7QCC7 1-478): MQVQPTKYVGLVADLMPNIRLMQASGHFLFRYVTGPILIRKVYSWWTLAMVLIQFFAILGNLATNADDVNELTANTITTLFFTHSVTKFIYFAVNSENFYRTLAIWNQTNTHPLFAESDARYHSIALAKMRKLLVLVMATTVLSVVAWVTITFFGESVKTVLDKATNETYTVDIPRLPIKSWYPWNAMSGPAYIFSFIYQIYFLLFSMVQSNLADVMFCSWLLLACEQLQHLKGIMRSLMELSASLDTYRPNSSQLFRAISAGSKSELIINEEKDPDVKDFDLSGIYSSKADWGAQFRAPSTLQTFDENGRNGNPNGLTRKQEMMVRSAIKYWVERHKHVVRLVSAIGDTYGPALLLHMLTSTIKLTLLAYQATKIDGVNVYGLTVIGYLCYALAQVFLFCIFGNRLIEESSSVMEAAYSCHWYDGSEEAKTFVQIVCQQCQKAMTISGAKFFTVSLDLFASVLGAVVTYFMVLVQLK
Method: as §1
as §2, with “Current responses, filtered (4-pole, Bessel, low pass) at 20 Hz (-3 db) and sampled at 100 Hz, were captured and stored using OpusXpress 1.1 software (Molecular Devices).” left out

SMILES | inhibition at 100 µM (Cqui\Orco) | inhibition of OLC12 activation of Orco (Cqui\Orco; Cqui\Orco, 30µM OLC12, 10µM tryptamine) | mechanism of antagonism of Cqui\Orco (Cqui\Orco; OLC12 increased from 30µM to 100µM) | IC50 (Cqui\Orco; activated by 30µM OLC12) | IC50 (Cqui\Orco; activated by 100µM OLC12) | inhibition of odorant activation of the OR (Onub\Orco+Onub\Or6) | inhibition of odorant activation of the OR (Mcar\Orco+Mcar\Or5) | inhibition of odorant activation of the OR (Agam\Orco+Agam\Or48) | less potent than tryptamine (IC50 ratio) (Cqui\Orco; Cqui\Orco activated by 30µM OLC12)
NCCc1c[nH]c2ccccc12 [tryptamine] | 92 ± 2% | inhibited OLC12 activation of Orco from each of these three insect species | competitive antagonist | 4.7 ± 0.7 µM | 143 ± 18 µM | substantial inhibition of each receptor | substantial inhibition of each receptor | able to inhibit odorant activation of the receptor | 
NCCc1ccc(O)cc1 [tyramine] | 40 ± 5% |  |  | 157 ± 22 µM |  | able to reduce odorant activation of these ORs, but was less effective than tryptamine | able to reduce odorant activation of these ORs, but was less effective than tryptamine | able to inhibit odorant activation of each of these receptors, but was less effective than tryptamine | 33 fold
